{
  "source": "patent US9464077B2",
  "about": "“Nitrogen-containing aromatic heterocyclic compound” (Astellas Pharma Inc., priority 2012, dated 2016)",
  "key": {"[1]": {"test_system": "bladder cancer patient-derived cell line RT4", "experiment": "Anchorage-independent cell growth inhibition, spheroid plate", "format": "cell-based", "conditions": "Homo sapiens, 96 h, 4 days, read-out: growth inhibition rate RT4"}, "[2]": {"test_system": "FGFR3-TACC3_v4-expressing NIH3T3 cells", "experiment": "Anchorage-independent cell growth inhibition, spheroid plate", "format": "cell-based", "conditions": "Mus musculus, NIH3T3, 96 h, 4 days, read-out: growth inhibition rate v4", "excerpt": "(§1) Measurement for anchorage-independent cell growth (colony method, etc.) is known to be a system for investigating the anticancer action (pharmacological effect) of compounds (Clinical Oncology, second edition, Cancer and Chemotherapy Publishers Inc.). As a method for measuring the non-adhesive growth of cells, there is the following method using a spheroid plate as referred to above in place of the colony method.\n(§2) In a 96-well spheroid plate (Sumilon Celltight Spheroid 96U; Sumitomo Bakelite), FGFR3-TACC3_v1-expressing NIH3T3 cells, FGFR3-TACC3_v2-expressing NIH3T3 cells, FGFR3-TACC3_v3-expressing NIH3T3 cells, and FGFR3-TACC3_v4-expressing NIH3T3 cells were each seeded at 1×10^3 cells per well in D-MEM media (Invitrogen) containing 10% fetal bovine serum. […] A well supplemented with only medium was also prepared for a positive control. Culturing was performed overnight in the presence of 5% CO2 at 37° C. followed by addition of test compounds (final concentrations: 100 nM, 10 nM, and 1 nM). As a negative control, DMSO used as a solvent for the compounds was added at the same concentration (0.1%) as in the case of addition of the compounds. Then, culturing was performed in the presence of 5% CO2 at 37° C. for 4 days, and a cell counting reagent (CellTiter-Glo™ Luminescent Cell Viability Assay; Promega) was added and the resulting mixture was stirred for 20 minutes followed by measurement with a luminometer."}, "[3]": {"test_system": "FGFR3-TACC3_v3-expressing NIH3T3 cells", "experiment": "Anchorage-independent cell growth inhibition, spheroid plate", "format": "cell-based", "conditions": "Mus musculus, NIH3T3, 96 h, 4 days, read-out: growth inhibition rate v3", "excerpt": "as §1, §2"}, "[4]": {"test_system": "FGFR3-TACC3_v1-expressing NIH3T3 cells", "experiment": "Anchorage-independent cell growth inhibition, spheroid plate", "format": "cell-based", "conditions": "Mus musculus, NIH3T3, 96 h, 4 days, read-out: growth inhibition rate v1", "excerpt": "as §1, §2"}, "[5]": {"test_system": "FGFR3-TACC3_v2-expressing NIH3T3 cells", "experiment": "Anchorage-independent cell growth inhibition, spheroid plate", "format": "cell-based", "conditions": "Mus musculus, NIH3T3, 96 h, 4 days, read-out: growth inhibition rate v2", "excerpt": "as §1, §2"}, "[6]": {"test_system": "FGFR3-TACC3_v3 (N-FLAG) fusion polypeptide", "experiment": "In vitro kinase activity inhibition (HTRF KinEASE-TK)", "format": "biochemical, human", "conditions": "100 μM ATP"}, "[7]": {"test_system": "FGFR3-TACC3_v2 (N-FLAG) fusion polypeptide", "experiment": "In vitro kinase activity inhibition (HTRF KinEASE-TK)", "format": "biochemical, human", "conditions": "100 μM ATP"}, "[8]": {"test_system": "FGFR3-BAIAP2L1-expressing NIH3T3 cells", "experiment": "Anchorage-independent cell growth inhibition, spheroid plate", "format": "cell-based", "conditions": "Mus musculus, NIH3T3, 96 h, 4 days, read-out: growth inhibition rate FGFR3-BAIAP2L1-expressing NIH3T3 Cells", "protocol": "In a 96-well spheroid plate (Sumilon Celltight Spheroid 96U; Sumitomo Bakelite), FGFR3-BAIAP2L1-expressing NIH3T3 cells were seeded at 1×10^3 cells per well in D-MEM medium containing 10% fetal bovine serum. A well supplemented with only medium was also prepared for a positive control. Culturing was performed overnight in the presence of 5% CO2 at 37° C. followed by addition of test compounds (final concentrations: 100 nM, 10 nM, and 1 nM). As a negative control, DMSO used as a solvent for the compounds was added at the same concentration (0.1%) as in the case of addition of the compounds. Then, culturing was performed in the presence of 5% CO2 at 37° C. for 4 days, and a cell counting reagent (CellTiter-Glo™ Luminescent Cell Viability Assay; Promega) was added and the resulting mixture was stirred for 20 minutes followed by measurement with a luminometer."}, "human recombinant FGFR3": {"target": "human recombinant FGFR3 (Homo sapiens, UniProt P22607)", "sequence (P22607 23-806)": "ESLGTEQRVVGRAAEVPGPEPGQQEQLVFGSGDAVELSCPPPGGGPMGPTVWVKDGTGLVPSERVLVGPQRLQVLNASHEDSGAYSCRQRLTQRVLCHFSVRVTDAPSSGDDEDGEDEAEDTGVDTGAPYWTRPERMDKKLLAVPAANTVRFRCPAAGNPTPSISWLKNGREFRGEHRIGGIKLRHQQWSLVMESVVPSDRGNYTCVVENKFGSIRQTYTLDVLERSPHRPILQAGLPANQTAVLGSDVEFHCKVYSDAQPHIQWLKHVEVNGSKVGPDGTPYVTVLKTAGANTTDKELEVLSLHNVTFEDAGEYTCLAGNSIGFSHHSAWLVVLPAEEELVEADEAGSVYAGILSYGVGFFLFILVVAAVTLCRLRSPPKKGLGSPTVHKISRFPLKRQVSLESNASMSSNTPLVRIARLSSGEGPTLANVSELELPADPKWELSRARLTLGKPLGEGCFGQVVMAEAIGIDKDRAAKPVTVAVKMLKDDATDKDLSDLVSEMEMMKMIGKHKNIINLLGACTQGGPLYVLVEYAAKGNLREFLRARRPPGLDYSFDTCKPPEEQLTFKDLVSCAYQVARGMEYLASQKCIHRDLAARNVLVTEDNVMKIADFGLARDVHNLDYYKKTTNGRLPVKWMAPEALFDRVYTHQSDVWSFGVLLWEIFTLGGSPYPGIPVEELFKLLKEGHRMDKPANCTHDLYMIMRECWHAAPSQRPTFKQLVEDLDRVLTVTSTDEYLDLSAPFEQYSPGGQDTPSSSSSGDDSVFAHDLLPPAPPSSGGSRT", "experiment": "FGFR3 enzyme assay (LabChip EZ Reader)", "quoted_text": "(§3) The compound was diluted with a solution of dimethyl sulfoxide (DMSO) (10-fold common ratio, 4 portions) before dilution with a reaction buffer (100 mM HEPES (pH7.5), 0.003% Brij-35, 0.004% Tween 20, 0.5 mM DTT, and 10 mM MgCl2) so that the final DMSO concentration was 2%. To 4 μL of the compound solution in a 384-well plate, 2 μL each of FGFR1 enzyme (2 or 3 ng/μL), FGFR2 enzyme (2 ng/μL), or FGFR3 enzyme (6 ng/μL) which were diluted with the reaction buffer was added. […] After the reaction was stopped, the reaction mixture was measured with a LabChip EZ Reader. The IC50 values were calculated by non-linear regression based on the inhibition rates obtained."}, "[9]": {"test_system": "bladder cancer patient-derived cell line RT-112", "experiment": "Anchorage-independent cell growth inhibition, spheroid plate", "format": "cell-based", "conditions": "Homo sapiens, RT-112, 96 h, 4 days, read-out: growth inhibition rate RT-112"}, "FGFR3_S249C/NIH3T3 cells": {"test_system": "FGFR3_S249C/NIH3T3 cells", "experiment": "Growth assay of cells with forced expression of mutant FGFR3", "format": "cell-based", "conditions": "Mus musculus, NIH3T3, 120 h; 5 days after addition, CellTiter-Glo; read-out: IC50 (growth inhibition)", "protocol": "FGFR3_S249C/NIH3T3 cells were added to a 96-well spheroid plate (U bottom) at a concentration of 3000 cells/well/90 μL, and the compound solution (10 μL) was added thereto on the next day (final DMSO concentration: 0.1%). The compound solution was prepared by serially diluting the compound with DMSO at a 3-fold common ratio (9 portions and DMSO only) from the maximum concentration of 10 mM and then diluted 100-fold with a culture medium (D-MEM, 10% FBS). 5 days after the addition of the compound, the growth inhibition caused by the compound was evaluated by Promega (G7573) CellTiter-Glo™ Luminescent Cell Viability Assay."}, "human recombinant FGFR1": {"target": "human recombinant FGFR1 (Homo sapiens, UniProt P11362)", "sequence (P11362 22-822)": "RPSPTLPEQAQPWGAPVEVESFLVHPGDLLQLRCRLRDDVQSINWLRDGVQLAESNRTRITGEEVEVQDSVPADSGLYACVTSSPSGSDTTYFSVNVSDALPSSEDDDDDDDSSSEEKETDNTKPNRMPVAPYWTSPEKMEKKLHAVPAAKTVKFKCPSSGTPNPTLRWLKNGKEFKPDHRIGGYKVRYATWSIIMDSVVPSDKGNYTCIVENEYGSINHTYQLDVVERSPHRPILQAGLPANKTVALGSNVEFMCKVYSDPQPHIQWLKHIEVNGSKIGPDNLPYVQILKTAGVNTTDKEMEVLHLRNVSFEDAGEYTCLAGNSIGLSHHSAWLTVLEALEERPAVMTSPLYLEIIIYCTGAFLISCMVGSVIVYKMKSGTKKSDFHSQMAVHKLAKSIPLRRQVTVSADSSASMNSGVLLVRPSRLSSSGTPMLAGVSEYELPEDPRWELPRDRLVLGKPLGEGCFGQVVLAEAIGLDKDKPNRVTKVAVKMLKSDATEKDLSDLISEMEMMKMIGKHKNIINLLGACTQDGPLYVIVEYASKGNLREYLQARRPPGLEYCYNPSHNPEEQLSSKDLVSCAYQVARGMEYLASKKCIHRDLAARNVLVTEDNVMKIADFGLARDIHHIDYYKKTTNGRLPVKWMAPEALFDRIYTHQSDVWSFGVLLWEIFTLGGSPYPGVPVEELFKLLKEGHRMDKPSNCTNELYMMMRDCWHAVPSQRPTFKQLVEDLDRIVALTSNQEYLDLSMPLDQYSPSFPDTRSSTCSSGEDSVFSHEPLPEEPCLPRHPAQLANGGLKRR", "experiment": "FGFR1 enzyme assay (LabChip EZ Reader)", "quoted_text": "as §3"}},
  "data": [
    {"smiles": "COc1cc(OC)c(F)c(COc2cnc(Nc3ccc(N4CCC(NCCO)CC4)cc3)nc2)c1F", "note": "[Example 299]", "values": [
      {"measurement": "inhibition at 0.001 µM", "setting": "[1]; 1 nM", "result": 8, "unit": "%"},
      {"measurement": "inhibition at 0.01 µM", "setting": "[1]; 10 nM", "result": 45, "unit": "%"},
      {"measurement": "inhibition at 0.1 µM", "setting": "[1]; 100 nM", "result": 63, "unit": "%"},
      {"measurement": "inhibition at 0.001 µM", "setting": "[2]; 1 nM", "result": 16, "unit": "%"},
      {"measurement": "inhibition at 0.01 µM", "setting": "[2]; 10 nM", "result": 82, "unit": "%"},
      {"measurement": "inhibition at 0.1 µM", "setting": "[2]; 100 nM", "result": 90, "unit": "%"},
      {"measurement": "inhibition at 0.001 µM", "setting": "[3]; 1 nM", "result": 5, "unit": "%"},
      {"measurement": "inhibition at 0.01 µM", "setting": "[3]; 10 nM", "result": 51, "unit": "%"},
      {"measurement": "inhibition at 0.1 µM", "setting": "[3]; 100 nM", "result": 89, "unit": "%"},
      {"measurement": "inhibition at 0.001 µM", "setting": "[4]; 1 nM", "result": 9, "unit": "%"},
      {"measurement": "inhibition at 0.01 µM", "setting": "[4]; 10 nM", "result": 77, "unit": "%"},
      {"measurement": "inhibition at 0.1 µM", "setting": "[4]; 100 nM", "result": 92, "unit": "%"},
      {"measurement": "inhibition at 0.001 µM", "setting": "[5]; 1 nM", "result": 4, "unit": "%"},
      {"measurement": "inhibition at 0.01 µM", "setting": "[5]; 10 nM", "result": 63, "unit": "%"},
      {"measurement": "inhibition at 0.1 µM", "setting": "[5]; 100 nM", "result": 91, "unit": "%"},
      {"measurement": "rate of inhibiting kinase activity v3", "setting": "[6]; 1 nM", "result": 47, "unit": "%"},
      {"measurement": "rate of inhibiting kinase activity v3", "setting": "[6]; 10 nM", "result": 88, "unit": "%"},
      {"measurement": "rate of inhibiting kinase activity v3", "setting": "[6]; 100 nM", "result": 96, "unit": "%"},
      {"measurement": "rate of inhibiting kinase activity v2", "setting": "[7]; 1 nM", "result": 20, "unit": "%"},
      {"measurement": "rate of inhibiting kinase activity v2", "setting": "[7]; 10 nM", "result": 77, "unit": "%"},
      {"measurement": "rate of inhibiting kinase activity v2", "setting": "[7]; 100 nM", "result": 95, "unit": "%"},
      {"measurement": "inhibition at 0.001 µM", "setting": "[8]; 1 nM", "result": 15, "unit": "%"},
      {"measurement": "inhibition at 0.01 µM", "setting": "[8]; 10 nM", "result": 81, "unit": "%"},
      {"measurement": "inhibition at 0.1 µM", "setting": "[8]; 100 nM", "result": 91, "unit": "%"},
      {"measurement": "IC50", "setting": "human recombinant FGFR3", "result": 2, "unit": "nM"},
      {"measurement": "inhibition at 0.001 µM", "setting": "[9]; 1 nM", "result": 31, "unit": "%"},
      {"measurement": "inhibition at 0.01 µM", "setting": "[9]; 10 nM", "result": 84, "unit": "%"},
      {"measurement": "inhibition at 0.1 µM", "setting": "[9]; 100 nM", "result": 89, "unit": "%"},
      {"measurement": "IC50", "setting": "FGFR3_S249C/NIH3T3 cells", "result": 10, "unit": "nM"},
      {"measurement": "IC50", "setting": "human recombinant FGFR1", "result": "< 1", "unit": "nM"}
    ]}
  ]
}
